Source: ChEMBL document CHEMBL3046316, “Synthesis and Acaricidal Activity of N-(1,3,4-Thiadiazol-2-yl)pyrazole-5-carboxamides and N-(1,3,4-Thiadiazol-2-yl)thiazole-5-carboxamides” (2003)

test system: Tetranychus urticae; assay: Acaricidal activity against Tetranychus urticae (two-spotted spider mite) assessed as mite mortality at 500 ppm relative to untreated control; format: functional

Compound | mortality at 500 ppm
Cc1nc(C)c(C(=O)Nc2nnc(C(F)(F)C(F)(F)C(F)(F)F)s2)s1 | > 80%
CCc1nc(C)c(C(=O)Nc2nnc(C(F)(F)C(F)(F)C(F)(F)F)s2)s1 | < 80%
Cc1nc(C(C)C)sc1C(=O)Nc1nnc(C(F)(F)C(F)(F)C(F)(F)F)s1 | < 80%
Cc1nc(C(C)(C)C)sc1C(=O)Nc1nnc(C(F)(F)F)s1 | < 80%
Cn1nc(C(C)(C)C)cc1C(=O)Nc1nnc(C(F)(F)F)s1 | < 80%
Cn1nc(C(C)(C)C)c(I)c1C(=O)Nc1nnc(C(F)(F)F)s1 | < 80%
Cn1nc(C(C)(C)C)c(Cl)c1C(=O)Nc1nnc(C(F)F)s1 | < 80%
Cn1nc(C(C)(C)C)c(Cl)c1C(=O)Nc1nnc(C(F)(F)C(F)F)s1 | < 80%
Cn1nc(C(C)(C)C)c(Cl)c1C(=O)Nc1nnc(C(F)(F)C(F)(F)C(F)(F)C(F)(F)C(F)(F)C(F)(F)F)s1 | < 80%
Cn1nc(C2CC2)c(Cl)c1C(=O)Nc1nnc(C(F)(F)F)s1 | > 80%
CCCCc1nn(C)c(C(=O)Nc2nnc(C(F)(F)F)s2)c1Cl | > 80%

test system: Tetranychus urticae; assay: Acaricidal activity against Tetranychus urticae (two-spotted spider mite) assessed as mite mortality at 200 ppm relative to untreated control; format: functional

Compound | mortality at 200 ppm
CCC(C)c1nn(C)c(C(=O)Nc2nnc(C(F)(F)F)s2)c1Cl (stereo unspecified) | > 80%
Cn1nc(C(C)(C)C)c(Br)c1C(=O)Nc1nnc(C(F)(F)F)s1 | > 80%
Cc1nn(C)c(C(=O)Nc2nnc(C(F)(F)F)s2)c1Cl | > 80%
CCc1nn(C)c(C(=O)Nc2nnc(C(F)(F)F)s2)c1Cl | > 80%
CCCc1nn(C)c(C(=O)Nc2nnc(C(F)(F)F)s2)c1Cl | > 80%
CC(C)c1nn(C)c(C(=O)Nc2nnc(C(F)(F)F)s2)c1Cl | > 80%
CC(C)Cc1nn(C)c(C(=O)Nc2nnc(C(F)(F)F)s2)c1Cl | > 80%

test system: Tetranychus urticae; assay: Acaricidal activity against Tetranychus urticae (two-spotted spider mite) assessed as mite mortality at 50 ppm relative to untreated control; format: functional

Compound | mortality at 50 ppm
Cc1nc(C(C)(C)C)sc1C(=O)Nc1nnc(C(F)(F)C(F)(F)C(F)(F)F)s1 | > 80%
Cc1nc(C(C)(C)C)sc1C(=O)Nc1nnc(C(F)(F)C(F)(F)F)s1 | > 80%
Cc1nc(C(C)(C)C)sc1C(=O)Nc1nnc(C(F)(F)C(F)(F)C(F)(F)C(F)(F)F)s1 | > 80%
Cn1nc(C(C)(C)C)c(Cl)c1C(=O)Nc1nnc(C(F)(F)F)s1 | > 80%
Cn1nc(C(C)(C)C)c(Cl)c1C(=O)Nc1nnc(C(F)(F)C(F)(F)F)s1 | > 80%
Cn1nc(C(C)(C)C)c(Cl)c1C(=O)Nc1nnc(C(F)(F)C(F)(F)C(F)(F)F)s1 | > 80%
Cn1nc(C(C)(C)C)c(Cl)c1C(=O)Nc1nnc(C(F)(F)C(F)(F)C(F)(F)C(F)(F)F)s1 | > 80%
Cn1nc(C(C)(C)C)c(Cl)c1C(=O)Nc1nnc(C(F)(F)C(F)(F)C(F)(F)C(F)(F)C(F)(F)F)s1 | > 80%
